Assay results published in patent US20210284638A1 (Saint Louis University, priority 2018, published 2021).
Structures can show the parent of a compound that is named as a salt.

Key:
[1] = molecular target: T1, Recombinant human integrin αvβ1 (Homo sapiens, UniProt P05556+P06756); test: Solid Phase Receptor Assay (SPRA) for αVβ1 function; type: binding; settings: plate-bound human fibronectin
T1 construct: purchased R&D Systems 6579-AV
Protocol: B. Solid Phase Receptor Assay (SPRA) for αVβ1 Function
Wells were washed 3 times with 150 μL TBS+ and then 150 μL of blocking buffer (TBS+ with 1% bovine serum albumin, Sigma A7906) was added. The plate was incubated for 1 hr at 37° C. and then washed 3× with TBS+ buffer. […] Compounds were diluted to 20 μM and 1 μL was added to each well of the plate according to a standard template with each sample repeated in triplicate. After incubation for two hours at room temperature, the plate was washed 3× with 150 μL of TBS+ buffer. To each well, 50 μL of biotinylated anti-αV antibody (R&D Systems, BAF1219) at 1 μg/mL in TBS+/0.1% BSA were added and the plate covered and incubated for 1 hr at room temperature. After washing the plate 3× with 150 μL of TBS+ buffer, 50 μL of streptavidin-conjugated horseradish peroxidase (R&D Systems, DY998) diluted in TBS+ blocking buffer were added to the wells and the plate incubated for 20 min at room temperature. The plate was washed 3× with TBS+ buffer followed by 50 μL of TMB substrate (Sigma, T4444) added to each well in the dark and the plate incubated for 25 min at room temperature. 25 μL of 1.0 M phosphoric acid was added as a stop solution and the plates were read at 450 nm using a Spectramax plate reader.

[2] = molecular target: T2, Recombinant human integrin αVβ6 (Homo sapiens, UniProt P06756+P18564); test: Solid Phase Receptor Assay (SPRA) for αVβ6 function; type: binding; settings: plate-bound human LAP
T2 construct: purchased R&D Systems 3817-AV
T2 sequence (P06756 31-992 limits assumed): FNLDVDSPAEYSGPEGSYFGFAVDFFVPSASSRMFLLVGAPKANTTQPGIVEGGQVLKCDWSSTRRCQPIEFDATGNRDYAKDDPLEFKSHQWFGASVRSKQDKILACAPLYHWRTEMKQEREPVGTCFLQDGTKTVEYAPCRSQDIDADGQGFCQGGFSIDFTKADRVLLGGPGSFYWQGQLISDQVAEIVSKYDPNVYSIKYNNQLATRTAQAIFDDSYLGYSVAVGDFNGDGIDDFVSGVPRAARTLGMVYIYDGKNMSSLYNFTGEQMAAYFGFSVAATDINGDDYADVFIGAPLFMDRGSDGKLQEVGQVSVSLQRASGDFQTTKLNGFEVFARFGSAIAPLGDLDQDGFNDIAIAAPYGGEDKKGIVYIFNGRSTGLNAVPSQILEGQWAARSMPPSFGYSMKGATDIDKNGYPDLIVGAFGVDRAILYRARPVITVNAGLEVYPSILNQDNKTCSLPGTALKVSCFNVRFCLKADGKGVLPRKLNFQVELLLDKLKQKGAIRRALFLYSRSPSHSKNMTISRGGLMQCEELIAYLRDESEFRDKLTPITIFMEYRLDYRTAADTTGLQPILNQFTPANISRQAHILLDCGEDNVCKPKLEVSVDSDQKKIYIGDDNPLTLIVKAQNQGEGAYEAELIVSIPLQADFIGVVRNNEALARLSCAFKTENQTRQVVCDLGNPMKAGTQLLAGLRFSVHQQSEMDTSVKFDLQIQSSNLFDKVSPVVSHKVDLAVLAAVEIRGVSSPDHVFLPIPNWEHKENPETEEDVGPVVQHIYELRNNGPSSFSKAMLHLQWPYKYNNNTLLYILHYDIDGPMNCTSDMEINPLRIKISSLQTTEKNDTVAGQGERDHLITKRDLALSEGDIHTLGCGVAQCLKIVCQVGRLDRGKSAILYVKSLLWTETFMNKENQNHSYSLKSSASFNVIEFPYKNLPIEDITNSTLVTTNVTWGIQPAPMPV
T2 sequence (P18564 22-707 limits assumed): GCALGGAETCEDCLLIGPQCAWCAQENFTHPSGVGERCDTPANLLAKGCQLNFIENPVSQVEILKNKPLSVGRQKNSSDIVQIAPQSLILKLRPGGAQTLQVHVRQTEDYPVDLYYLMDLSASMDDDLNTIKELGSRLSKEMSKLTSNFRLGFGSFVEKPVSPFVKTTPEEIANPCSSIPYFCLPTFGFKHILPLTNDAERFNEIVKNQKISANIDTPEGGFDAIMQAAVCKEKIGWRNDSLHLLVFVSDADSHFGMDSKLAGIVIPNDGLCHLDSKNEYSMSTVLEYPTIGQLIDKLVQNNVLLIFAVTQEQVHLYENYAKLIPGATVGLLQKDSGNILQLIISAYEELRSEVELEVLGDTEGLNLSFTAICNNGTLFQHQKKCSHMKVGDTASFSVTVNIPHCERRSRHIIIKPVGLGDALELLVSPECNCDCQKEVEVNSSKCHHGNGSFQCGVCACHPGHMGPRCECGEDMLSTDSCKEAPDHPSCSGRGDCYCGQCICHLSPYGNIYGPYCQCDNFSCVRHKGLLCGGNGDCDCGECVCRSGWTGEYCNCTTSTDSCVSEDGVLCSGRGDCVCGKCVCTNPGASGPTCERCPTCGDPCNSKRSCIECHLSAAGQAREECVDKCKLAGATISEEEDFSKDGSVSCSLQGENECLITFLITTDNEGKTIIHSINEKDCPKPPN
Protocol: E. Solid Phase Receptor Assay (SPRA) for αVβ6 Function
Wells were washed 3 times with 150 μL TBS+, and then 150 μL of blocking buffer (TBS+ with 1% bovine serum albumin, Sigma A7906) was added. The plate was incubated for 1 hr at 37° C., and then washed 3× with TBS+ buffer. […] Compounds were diluted to 20 μM and then 1 μL was added to each well of the plate according to a standard template with each sample repeated in triplicate. After incubation for two hours at room temperature, the plate was washed 3× with 150 μL of TBS+ buffer. To each well, 50 μL of biotinylated anti-αV antibody (R&D Systems, BAF1219) at 0.5 μg/mL in TBS+/0.1% BSA were added and the plate was covered and incubated for 1 hr at room temperature. After washing the plate 3× with 150 μL of TBS+ buffer, 50 μL of streptavidin-conjugated horseradish peroxidase (R&D Systems, DY998) diluted in TBS+ blocking buffer were added to the wells and the plate incubated for 20 min at room temperature. The plate was washed 3× with TBS+ buffer followed by 50 μL of TMB substrate (Sigma T4444) added to each well in the dark and the plate incubated for 10 min at room temperature. 25 μL of 1.0 M phosphoric acid was added as a stop solution and the plates were read at 450 nm using a Spectramax plate reader.

T1 sequence (P06756 31-992 limits assumed): as the sequence (P06756 31-992 limits assumed) above
T1 sequence (P05556 21-728 limits assumed): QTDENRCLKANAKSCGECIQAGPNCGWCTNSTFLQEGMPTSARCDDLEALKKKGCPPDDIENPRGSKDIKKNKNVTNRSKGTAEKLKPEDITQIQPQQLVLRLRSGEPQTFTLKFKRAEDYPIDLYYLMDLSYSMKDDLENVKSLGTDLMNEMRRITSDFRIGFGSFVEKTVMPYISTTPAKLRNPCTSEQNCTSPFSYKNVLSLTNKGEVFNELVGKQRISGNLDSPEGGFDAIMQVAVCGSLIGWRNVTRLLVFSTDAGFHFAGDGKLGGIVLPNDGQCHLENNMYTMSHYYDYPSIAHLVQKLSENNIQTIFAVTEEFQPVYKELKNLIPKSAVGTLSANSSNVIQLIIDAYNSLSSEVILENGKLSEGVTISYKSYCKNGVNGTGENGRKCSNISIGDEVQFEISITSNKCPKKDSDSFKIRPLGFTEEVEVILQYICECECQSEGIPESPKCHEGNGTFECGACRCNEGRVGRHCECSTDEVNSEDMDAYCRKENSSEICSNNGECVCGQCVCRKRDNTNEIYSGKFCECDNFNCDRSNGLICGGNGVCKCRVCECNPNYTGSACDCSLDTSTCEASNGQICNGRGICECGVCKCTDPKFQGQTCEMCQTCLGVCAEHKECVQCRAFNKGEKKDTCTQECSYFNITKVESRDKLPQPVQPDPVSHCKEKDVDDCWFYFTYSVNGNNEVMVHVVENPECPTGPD

COc1c(C(C)C)cc(C(CC(=O)O)Cc2cc(OCCc3ccc4c(n3)NCCC4)n(C)n2)cc1C(C)C (stereo not shown) [Example 25, 3-(3,5-diisopropyl-4-methoxy-phenyl)-4-[1-methyl-5-[2-(5,6,7,8-tetrahydro-1,8-naphthyridin-2-yl)ethoxy]pyrazol-3-yl]butanoic acid]
IC50 [1]: 6 nM
IC50 [2]: 160 nM

Cn1nc(CC(CC(=O)O)c2cc(C(C)(C)C)ccc2OC(F)(F)F)cc1OCCc1ccc2c(n1)NCCC2 (stereo not shown) [Example 20, 3-(5-(tert-butyl)-2-(trifluoromethoxy)phenyl)-4-(1-methyl-5-(2-(5,6,7,8-tetrahydro-1,8-naphthyridin-2-yl)ethoxy)-1H-pyrazol-3-yl)butanoic acid]
IC50 [1]: 6 nM
IC50 [2]: 220 nM

Cn1nc(CC(CC(=O)O)c2cc(Cl)cc(C(C)(C)C#N)c2)cc1OCCc1ccc2c(n1)NCCC2 (stereo not shown) [Example 8, 3-(3-chloro-5-(2-cyanopropan-2-yl)phenyl)-4-(1-methyl-5-(2-(5,6,7,8-tetrahydro-1,8-naphthyridin-2-yl)ethoxy)-1H-pyrazol-3-yl)butanoic acid]
IC50 [1]: 2 nM
IC50 [2]: 36 nM

COc1ccc(C(C)(C)O)cc1C(CC(=O)O)Cc1cc(OCCc2ccc3c(n2)NCCC3)n(C)n1 (stereo not shown) [Example 22, 3-(5-(2-hydroxypropan-2-yl)-2-methoxyphenyl)-4-(1-methyl-5-(2-(5,6,7,8-tetrahydro-1,8-naphthyridin-2-yl)ethoxy)-1H-pyrazol-3-yl)butanoic acid]
IC50 [1]: 3 nM
IC50 [2]: 160 nM

CC(C)(C)c1ccc(Br)c(C(CC(=O)O)Cc2csc(CCCc3ccc4c(n3)NCCC4)n2)c1 (stereo not shown) [Example 34]
IC50 [1]: 4 nM
IC50 [2]: 3400 nM

COc1ccc(S(F)(F)(F)(F)F)cc1C(CC(=O)O)Cc1cc(OCCc2ccc3c(n2)NCCC3)n(C)n1 (stereo not shown) [Example 24, 3-[2-methoxy-5-(pentafluoro-sulfanyl)phenyl]-4-[1-methyl-5-[2-(5,6,7,8-tetrahydro-1,8-naphthyridin-2-yl)ethoxy]pyrazol-3-yl]butanoic acid]
IC50 [1]: 9 nM
IC50 [2]: 48 nM

CC(C)c1cc(C(C)C)cc(C(CC(=O)O)Cc2cc(OCCc3ccc4c(n3)NCCC4)n(C)n2)c1 (stereo not shown) [Example 4, 3-(3,5-diisopropylphenyl)-4-[1-methyl-5-[2-(5,6,7,8-tetrahydro-1,8-naphthyridin-2-yl)ethoxy]pyrazol-3-yl]butanoic acid]
IC50 [1]: 7 nM
IC50 [2]: 84 nM

O=C(O)CC(Cc1cc(OCCc2ccc3c(n2)NCCC3)[nH]n1)c1cccc(F)c1 (stereo not shown) [CC2, reference compound]
IC50 [1]: 19 nM
IC50 [2]: 54 nM

Cn1nc(CC(CC(=O)O)c2cc(Br)cc(S(F)(F)(F)(F)F)c2)cc1OCCc1ccc2c(n1)NCCC2 (stereo not shown) [Example 3, 3-[3-bromo-5-(pentafluoro-sulfanyl)phenyl]-4-[1-methyl-5-[2-(5,6,7,8-tetrahydro-1,8-naphthyridin-2-yl)ethoxy]pyrazol-3-yl]butanoic acid]
IC50 [1]: 12 nM
IC50 [2]: 54 nM

COc1c(C(C)C)cc(C(CC(=O)O)Cc2csc(CCCc3ccc4c(n3)NCCC4)n2)cc1C(C)C (stereo not shown) [Example 26, 3-(3,5-diisopropyl-4-methoxy-phenyl)-4-[2-[3-(5,6,7,8-tetrahydro-1,8-naphthyridin-2-yl)propyl]thiazol-4-yl]butanoic acid]
IC50 [1]: 8 nM
IC50 [2]: 330 nM

COCC1(c2ccc(OC)c(C(CC(=O)O)Cc3cc(OCCc4ccc5c(n4)NCCC5)n(C)n3)c2)CCOCC1 (stereo not shown) [Example 45, 3-(2-methoxy-5-(4-(methoxymethyl)tetrahydro-2H-pyran-4-yl)phenyl)-4-(1-methyl-5-(2-(5,6,7,8-tetrahydro-1,8-naphthyridin-2-yl)ethoxy)-1H-pyrazol-3-yl)butanoic acid]
IC50 [1]: 2.2 nM
IC50 [2]: 4100 nM

Cn1nc(CC(CC(=O)O)c2cc(C(C)(C)C)cc(C(C)(C)C(F)(F)F)c2)cc1OCCc1ccc2c(n1)NCCC2 (stereo not shown) [Example 5, 3-(3-(tert-butyl)-5-(1,1,1-trifluoro-2-methylpropan-2-yl)phenyl)-4-(1-methyl-5-(2-(5,6,7,8-tetrahydro-1,8-naphthyridin-2-yl)ethoxy)-1H-pyrazol-3-yl) butanoic acid]
IC50 [1]: 4 nM
IC50 [2]: 460 nM

CC(C)(C)c1cc(C(CC(=O)O)Cc2csc(CCCc3ccc4c(n3)NCCC4)n2)cc(C2(C(F)F)CC2)c1 (stereo not shown) [Example 30, 3-[3-tert-butyl-5-[1-(difluoromethyl)cyclopropyl]phenyl]-4-[2-[3-(5,6,7,8-tetrahydro-1,8-naphthyridin-2-yl)propyl]thiazol-4-yl]butanoic acid]
IC50 [1]: 5 nM
IC50 [2]: 270 nM

COCC1(c2cc(C(CC(=O)O)Cc3csc(CCCc4ccc5c(n4)NCCC5)n3)cc(C(C)(C)C)c2)CCOCC1 (stereo not shown) [Example 32, 3-[3-tert-butyl-5-[4-(methoxymethyl)tetrahydropyran-4-yl]phenyl]-4-[2-[3-(5,6,7,8-tetrahydro-1,8-naphthyridin-2-yl)propyl]thiazol-4-yl]butanoic acid]
IC50 [1]: 7 nM
IC50 [2]: 130 nM

Cn1nc(CC(CC(=O)O)c2cc(C(C)(C)C)ccc2Br)cc1OCCc1ccc2c(n1)NCCC2 (stereo not shown) [Example 17, 3-(2-bromo-5-(tert-butyl)phenyl)-4-(1-methyl-5-(2-(5,6,7,8-tetrahydro-1,8-naphthyridin-2-yl)ethoxy)-1H-pyrazol-3-yl)butanoic acid]
IC50 [1]: 14 nM
IC50 [2]: 1900 nM

COc1c(C(CC(=O)O)Cc2cc(OCCc3ccc4c(n3)NCCC4)n(C)n2)cc(C(C)(C)C)cc1C(C)(C)C (stereo not shown) [Example 11, 3-(3,5-di-tert-butyl-2-methoxyphenyl)-4-(1-methyl-5-(2-(5,6,7,8-tetrahydro-1,8-naphthyridin-2-yl)ethoxy)-1H-pyrazol-3-yl)butanoic acid]
IC50 [1]: 800 nM
IC50 [2]: 11000 nM

COc1ccc(C2=CCOCC2)cc1[C@@H](CC(=O)O)Cc1csc(CCCc2ccc3c(n2)NCCC3)n1 [Example 37B, (R)-3-(5-(3,6-dihydro-2H-pyran-4-yl)-2-methoxyphenyl)-4-(2-(3-(5,6,7,8-tetrahydro-1,8-naphthyridin-2-yl)propyl)thiazol-4-yl)butanoic acid trifluoroacetate]
IC50 [1]: 190 nM
IC50 [2]: 3000 nM

CC(C)(C)c1cc(C(CC(=O)O)Cc2csc(CCCc3ccc4c(n3)NCCC4)n2)cc(C(C)(C)C(F)(F)F)c1 (stereo not shown) [Example 31, 3-[3-tert-butyl-5-(2,2,2-trifluoro-1,1-dimethyl-ethyl)phenyl]-4-[2-[3-(5,6,7,8-tetrahydro-1,8-naphthyridin-2-yl)propyl]thiazol-4-yl]butanoic acid]
IC50 [1]: 8 nM
IC50 [2]: 1700 nM

COc1c(Br)cc(C(C)(C)C)cc1C(CC(=O)O)Cc1cc(OCCc2ccc3c(n2)NCCC3)n(C)n1 (stereo not shown) [Example 12, 3-(3-bromo-5-(tert-butyl)-2-methoxyphenyl)-4-(1-methyl-5-(2-(5,6,7,8-tetrahydro-1,8-naphthyridin-2-yl)ethoxy)-1H-pyrazol-3-yl)butanoic acid]
IC50 [1]: 13 nM
IC50 [2]: 180 nM

COc1ccc(C2(C(F)F)CC2)cc1C(CC(=O)O)Cc1cc(OCCc2ccc3c(n2)NCCC3)n(C)n1 (stereo not shown) [Example 21, 3-[5-[1-(difluoromethyl)cyclopropyl]-2-methoxy-phenyl]-4-[1-methyl-5-[2-(5,6,7,8-tetrahydro-1,8-naphthyridin-2-yl)ethoxy]pyrazol-3-yl]butanoic acid]
IC50 [1]: 10 nM
IC50 [2]: 320 nM

Cn1nc(CC(CC(=O)O)c2cc(C(C)(C)C)ccc2C#N)cc1OCCc1ccc2c(n1)NCCC2 (stereo not shown) [Example 18, 3-(5-(tert-butyl)-2-cyanophenyl)-4-(1-methyl-5-(2-(5,6,7,8-tetrahydro-1,8-naphthyridin-2-yl)ethoxy)-1H-pyrazol-3-yl)butanoic acid]
IC50 [1]: 5 nM
IC50 [2]: 12 nM

COc1ccc(C2CCOCC2)cc1C(CC(=O)O)Cc1csc(CCCc2ccc3c(n2)NCCC3)n1 (stereo not shown) [Example 43, 3-(2-methoxy-5-(tetrahydro-2H-pyran-4-yl)phenyl)-4-(2-(3-(5,6,7,8-tetrahydro-1,8-naphthyridin-2-yl)propyl)thiazol-4-yl)butanoic acid]
IC50 [1]: 3 nM
IC50 [2]: 95 nM

COc1ccc(C2(C(F)F)CC2)cc1C(CC(=O)O)Cc1csc(CCCc2ccc3c(n2)NCCC3)n1 (stereo not shown) [Example 36, 3-(5-(1-(difluoromethyl)cyclopropyl)-2-methoxyphenyl)-4-(2-(3-(5,6,7,8-tetrahydro-1,8-naphthyridin-2-yl)propyl)thiazol-4-yl)butanoic acid]
IC50 [1]: 2 nM
IC50 [2]: 120 nM
